Measured values published in patent US9464093B2, “Substituted imidazo[4',5':4,5]cyclopenta[1,2-e]pyrrolo[1,2-a]pyrazines and oxazolo[4',5':4,5]cyclopenta[1,2-e]pyrrolo[1,2-a]pyrazines for treating brain cancer” (Mayo Foundation for Medical Education and Research, priority 2012, dated 2016).
“Also recorded” adds a separate entry of the source.

Experiments:
[1] = CNS pharmacokinetic study in mice (microdialysis, CE-UV); format: in vivo, C57BL/6J mice; conditions: 2.5 mg/kg i.p.
Method: The total of 90 male wild type C57BL/6J mice were used in this study. C57BL/6J mice were approximately 2 months of age and weighed 20˜25 g. All mice were housed in a temperature-controlled room ([…]) with a 12:12 light dark cycle (lights on at 0600). Purina 5001 Rodent Chow and tap water were available ad libitum at all times. Mouse use was approved by Mayo Foundation Institutional Animal Use and Care Committee (IACUC) and was consistent with NIH Guide for the Care and Use of Laboratory Animals. Agelastatin A was synthesized by Professor Takehiko Yoshimitsu at Graduate School of Pharmaceutical Sciences, Osaka University, Osaka, Japan. Professor Yoshimitsu has described details on the synthesis of this compound. Purity as determined by NMR spectra is >99%.
A total of five mice were used in microdialysis experiments. On the day of surgery, mice were anesthetized with gasiform isoflurane (1% isoflurane in a mixture of 20% oxygen and 80% nitrogen gas) and immobilized in a stereotaxic frame (KOPF Instruments, Tujunga, Calif.). […]
Briefly, the capillaries were preconditioned with 1 M sodium hydroxide for 2 min, water for 2 min and running buffer [100 mmol/1 solution of ammonium acetate (adjusted to pH 3.1 with acetic acid)-acetonitrile (50:50, v/v)] for 3 min. […] CNS penetration was determined as the ratio of CSF and blood area under the curve (AUC).

osteopontin = test: Osteopontin secretion ELISA in Raji cells; format: cell-based, human; conditions: culture medium, four days
Method: 10^5 Raji lymphoma cells were seeded in 5 ml media in 6-well plates in triplicate and were grown for four days. Cells were pelleted and the media was collected for analysis. Duplicate four hundred microliters of media supernatant were assayed for osteopontin by ELISA using Quantikine human osteopontin ELISA kit (R&D Systems, Inc., Minneapolis, Minn.). Statistical analysis was performed using two-tailed Student's T-Test.

Raji lymphoma cells = test: Matrigel invasion assay; format: cell-based; conditions: 1 hour pre-treatment with log dilutions
Method: Invasion assays were performed in triplicate using BD Biocoat Matrigel Invasion Chamber (BD Biosciences: Sparks, Md.) according to manufacturer's instructions (8-μm pore-size). Five percent serum was used as a chemoattractant in the bottom chamber. […] Viability of Raji cells was ascertained by Trypan blue test after the treatment with AA. Statistical analysis was performed using two-tailed Student's T-Test.

CN1C(=O)N[C@H]2[C@@H]3NC(=O)c4ccc(Br)n4[C@@H]3C[C@]21O [AA, agelastatin A, reference compound]
penetration into brain and eye tissue compartments [1]: shown to penetrate into the brain and eye tissue compartments; also recorded: can penetrate the brain and eye tissue compartments
OPN secretion by Raji cells (ELISA) (osteopontin): significantly decreased secretion of osteopontin; also recorded: decreases OPN secretion
Raji lymphoma cell invasion (Matrigel) (Raji lymphoma cells): significantly decreased invasiveness; also recorded: blocks Raji lymphoma cell invasion
